Where “and” joins values, the source holds several entries; their conditions need not be identical. Equal values may be shown once.
Key:
[1] = system: embryonic stages of S. digitata; assay: Presence of cytochrome-c in the cytoplasm, anti cytochrome c-FITC staining; format: cell-based, Setaria digitata; conditions: 24 hr
Method: Adult female filarial worms Setaria digitata were collected from the peritoneum of cattle, slaughtered at a nearby abattoir in sterile Hanks Balanced Salt Solution (HBSS) medium (Sigma H 2387-1L) and transported to the laboratory in a sterile container. The medium containing 1% glucose (Sigma G 7528), Penicillin 100 units/ml, Streptomycin 100 μg/ml (Sigma P 4333). And Amphotericin-B 0.25 μg/ml (Sigma A 2942) was buffered with NaHCO3 (Sigma S 5761). About 5 to 7 worms were taken in a petridish, washed three times in medium, dissected into small pieces in 10 ml of medium under sterile conditions and incubated at 37° C. for 30 minutes to allow the release of embryonic stages (eggs and microfilariae) into the medium. The embryonic stages were harvested into sterile 15 ml. centrifuge tubes and washed three times by centrifuging at 300 g for 10 minutes each with medium and the final pellet was suspended in 1 ml. of RPMI-1640 medium (Sigma R 8005) supplemented with 10% FBS (Sigma F 2442) The number of embryonic stages of S. digitata in the above preparation were counted using light microscope, and the suspension was taken in RPMI-1640 medium containing 10% FBS at 1×10^5 embryonic stages/ml. One ml. each was dispensed into individual wells of a 24 well tissue culture plate. One set of wells was taken as untreated control containing only medium with 10% FBS. […] Motility of the Mf was scored under an inverted microscope. After appropriate treatment and incubation, each set of the cultured embryonic stages of S. digitata were harvested from the 24 well tissue culture plate separately in 15 ml. sterile centrifuge tubes, washed with PBS twice and stained as per requirement following manufacturer's instructions as described below. This was followed by two times washing with PBS and final suspension of the stained embryonic stages was taken in 0.5 ml of sheath fluid (BD Biosciences 342003) before their acquisition in the flow cytometer (BD FACS Calibur, Becten and Dickinson, USA). Analysis was performed on 10,000-acquired events depicted as Dot Plots and Histogram Plots using Cellquest Pro soft ware. All plots were representative of at least 3 experiments. […] After in vitro culture for 24 hours with apoptosis inducing reagents the embryonic stages were harvested in 15 ml. sterile centrifuge tubes and fixed for 60 minutes at 0° C. in 1% paraformaldehyde (Sigma P 6148) in PBS. The suspension was washed first with PBS and then with 1× permeabilisation buffer (eBioscience 00-8333-56) and finally resuspended in 100 μl of 1× permeabilisation buffer at 1×10^5 embryonic stages per ml. This suspension was then incubated for 45 minutes with 20 μl of anti cytochrome c-FITC (eBioscience 11-6601-82). This was followed by washing with PBS twice and analysis by Flow cytometer.

[2] = system: embryonic stages of S. digitata; assay: Intra cellular cleavage of caspase substrate PARP, anti cleaved PARP-PE staining; format: cell-based, Setaria digitata; conditions: 24 hr
Method: Adult female filarial worms Setaria digitata were collected from the peritoneum of cattle, slaughtered at a nearby abattoir in sterile Hanks Balanced Salt Solution (HBSS) medium (Sigma H 2387-1L) and transported to the laboratory in a sterile container. The medium containing 1% glucose (Sigma G 7528), Penicillin 100 units/ml, Streptomycin 100 μg/ml (Sigma P 4333). And Amphotericin-B 0.25 μg/ml (Sigma A 2942) was buffered with NaHCO3 (Sigma S 5761). About 5 to 7 worms were taken in a petridish, washed three times in medium, dissected into small pieces in 10 ml of medium under sterile conditions and incubated at 37° C. for 30 minutes to allow the release of embryonic stages (eggs and microfilariae) into the medium. The embryonic stages were harvested into sterile 15 ml. centrifuge tubes and washed three times by centrifuging at 300 g for 10 minutes each with medium and the final pellet was suspended in 1 ml. of RPMI-1640 medium (Sigma R 8005) supplemented with 10% FBS (Sigma F 2442) The number of embryonic stages of S. digitata in the above preparation were counted using light microscope, and the suspension was taken in RPMI-1640 medium containing 10% FBS at 1×10^5 embryonic stages/ml. One ml. each was dispensed into individual wells of a 24 well tissue culture plate. One set of wells was taken as untreated control containing only medium with 10% FBS. […] Motility of the Mf was scored under an inverted microscope. After appropriate treatment and incubation, each set of the cultured embryonic stages of S. digitata were harvested from the 24 well tissue culture plate separately in 15 ml. sterile centrifuge tubes, washed with PBS twice and stained as per requirement following manufacturer's instructions as described below. This was followed by two times washing with PBS and final suspension of the stained embryonic stages was taken in 0.5 ml of sheath fluid (BD Biosciences 342003) before their acquisition in the flow cytometer (BD FACS Calibur, Becten and Dickinson, USA). Analysis was performed on 10,000-acquired events depicted as Dot Plots and Histogram Plots using Cellquest Pro soft ware. All plots were representative of at least 3 experiments. The distinctly clustered populations obtained consistently in the Dot plots for the intra uterine embryonic stages of S. digitata (FIG. 1 a) were gated for Mfs (R-1) and eggs (R-2 and R-3) and analyzed for different assays for apoptosis as described below. After in vitro culture for 24 hours with apoptosis inducing reagents the embryonic stages were harvested in 15 ml. sterile centrifuge tubes and fixed for 60 minutes at 0° C. in 1% paraformaldehyde (Sigma P 6148) in PBS. The suspension was washed first with PBS and then with 1× permeabilisation buffer (eBioscience 00-8333-56) and finally resuspended in 100 μl of 1× permeabilisation buffer at 1×10^5 embryonic stages per ml. This suspension was then incubated for 45 minutes with 20 μl of anti cleaved PARP-PE (BD Biosciences 552933). This was followed by washing with PBS twice and analysis by Flow cytometer.

SMILES	GMI (Geometric Mean Intensity) of Fluorescence, Cyt-c Staining ([1]; Eggs, 10 μM)	GMI (Geometric Mean Intensity) of Fluorescence, Cyt-c Staining ([1]; Microfilariae, 10 μM)	GMI (Geometric Mean Intensity) of Fluorescence, PARP Cleavage ([2]; Eggs, 10 μM)	GMI (Geometric Mean Intensity) of Fluorescence, PARP Cleavage ([2]; Microfilariae, 10 μM)	GMI (Geometric Mean Intensity) of Fluorescence, Cyt-c Staining ([1]; Eggs, 1 μM)	GMI (Geometric Mean Intensity) of Fluorescence, Cyt-c Staining ([1]; Microfilariae, 1 μM)	GMI (Geometric Mean Intensity) of Fluorescence, PARP Cleavage ([2]; Eggs, 1 μM)	GMI (Geometric Mean Intensity) of Fluorescence, PARP Cleavage ([2]; Microfilariae, 1 μM)
OO [H2O2]	62.37 and 67.72 and 65.39	7.53 and 9.23 and 8.14	70.72 and 75.32 and 78.52	8.39 and 7.99 and 8.02				
CC1=CC(=O)c2c(O)cccc2C1=O [Plumbagin]	70.29 and 76.25 and 71.32	18.69 and 20.32 and 17.56	102.15 and 109.36 and 110.25	10.01 and 11.32 and 9.67				
CN[C@@H]1C[C@H]2O[C@@](C)([C@@H]1OC)n1c3ccccc3c3c4c(c5c6ccccc6n2c5c31)C(=O)NC4 [Staurosporine]					54.33 and 61.66 and 57.27	6.02 and 4.20	63.95 and 66.56 and 70.27	6.57 and 6.21 and 5.49

From patent US20110124523A1, “High Throughput Method for Detecting Apoptosis of Embryonic Stages of Metazoan Helminthic Parasites” (INSTITUTE OF LIFE SCIENCES, priority 2009, published 2011)
